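Cells were grown in 96-well plates and exposed to each compound for 48 hours at five concentrations; endpoints were interpolated linearly between bracketing concentrations, or set to the highest concentration if not reached. GI50: concentration for 50% inhibition of growth.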 Calls of active or inactive are those of the source. Rule as the data show it: active = GI50 up to about 1.1 µM and inactive = higher.
Legend:
Experiment in all cases: growth of human tumour cells (NCI), 48 h
786-0 = system: 786-0
A498 = system: A498
A549 = system: A549
ACHN = system: ACHN
BT-549 = system: BT-549
CAKI-1 = system: CAKI-1
CCRF-CEM = system: CCRF-CEM
COLO 205 = system: COLO 205
DLD-1 = system: DLD-1
DMS-114 = system: DMS-114
DMS-273 = system: DMS-273
DU-145 = system: DU-145
EKVX = system: EKVX
HCC 2998 = system: HCC 2998
HCT-116 = system: HCT-116
HCT-15 = system: HCT-15
HL-60 = system: HL-60
HOP-62 = system: HOP-62
HOP-92 = system: HOP-92
HT-29 = system: HT-29
Hs-578T = system: Hs-578T
IGROV-1 = system: IGROV-1
K562 = system: K562
KM-20L2 = system: KM-20L2
KM12 = system: KM12
LOX IMVI = system: LOX IMVI
LXFL 529 = system: LXFL 529
M14 = system: M14
M19-MEL = system: M19-MEL
MCF7 = system: MCF7
MDA-MB-231 = system: MDA-MB-231
MDA-MB-435 = system: MDA-MB-435
MDA-N = system: MDA-N
MOLT-4 = system: MOLT-4
Malme-3M = system: Malme-3M
NCI-H226 = system: NCI-H226
NCI-H23 = system: NCI-H23
NCI-H460 = system: NCI-H460
NCI-H522 = system: NCI-H522
NCI/ADR-RES = system: NCI/ADR-RES
OVCAR-3 = system: OVCAR-3
OVCAR-4 = system: OVCAR-4
OVCAR-5 = system: OVCAR-5
OVCAR-8 = system: OVCAR-8
PC-3 = system: PC-3
RPMI-8226 = system: RPMI-8226
RXF 393 = system: RXF 393
SF-268 = system: SF-268
SF-295 = system: SF-295
SF-539 = system: SF-539
SK-MEL-28 = system: SK-MEL-28
SK-MEL-2 = system: SK-MEL-2
SK-MEL-5 = system: SK-MEL-5
SK-OV-3 = system: SK-OV-3
SN12C = system: SN12C
SNB-19 = system: SNB-19
SNB-75 = system: SNB-75
SNB-78 = system: SNB-78
SR = system: SR
SW-620 = system: SW-620
T47D = system: T47D
TK-10 = system: TK-10
U-251 = system: U-251
UACC-257 = system: UACC-257
UACC-62 = system: UACC-62
UO-31 = system: UO-31
XF498 = system: XF498
HOP-18 = system: HOP-18

COc1ccc(N2C(=O)[C@H]3CC(C)c4c([nH]c5ccccc45)[C@H]3C2=O)cc1 (some centres not stated)
GI50 (786-0): 3.48 µM (inactive)
GI50 (A498): 8.15 µM (inactive)
GI50 (A549): 5.85 µM (inactive)
GI50 (ACHN): 6.92 µM (inactive)
GI50 (BT-549): 8.83 µM (inactive)
GI50 (CAKI-1): 3.08 µM (inactive)
GI50 (CCRF-CEM): 2.49 µM (inactive)
GI50 (COLO 205): 2.5 µM (inactive)
GI50 (DLD-1): 3.54 µM (inactive)
GI50 (DMS-114): 2.01 µM (inactive)
GI50 (DMS-273): 1.51 µM (inactive)
GI50 (DU-145): 4.7 µM (inactive)
GI50 (EKVX): 24 µM (inactive)
GI50 (HCC 2998): 3.65 µM (inactive)
GI50 (HCT-116): 3.37 µM (inactive)
GI50 (HCT-15): 2.72 µM
GI50 (HL-60): 1.83 µM (inactive)
GI50 (HOP-62): 2.15 µM (inactive)
GI50 (HOP-92): 4.65 µM (inactive)
GI50 (HT-29): 2.92 µM (inactive)
GI50 (Hs-578T): 1.88 µM (inactive)
GI50 (IGROV-1): 4.41 µM (inactive)
GI50 (K562): 1.15 µM (inactive)
GI50 (KM-20L2): 2.99 µM (inactive)
GI50 (KM12): 2.77 µM (inactive)
GI50 (LOX IMVI): 4.6 µM (inactive)
GI50 (LXFL 529): 4.14 µM (inactive)
GI50 (M14): 2.48 µM (inactive)
GI50 (M19-MEL): 2.13 µM (inactive)
GI50 (MCF7): 2.25 µM (inactive)
GI50 (MDA-MB-231): 6.35 µM (inactive)
GI50 (MDA-MB-435): 0.611 µM (active)
GI50 (MDA-N): 0.681 µM (active)
GI50 (MOLT-4): 3.78 µM (inactive)
GI50 (Malme-3M): 2.11 µM (inactive)
GI50 (NCI-H226): 5.66 µM (inactive)
GI50 (NCI-H23): 3.8 µM (inactive)
GI50 (NCI-H460): 3.69 µM (inactive)
GI50 (NCI-H522): 1.1 µM (active)
GI50 (NCI/ADR-RES): 1.63 µM (inactive)
GI50 (OVCAR-3): 1.87 µM (inactive)
GI50 (OVCAR-4): 5.98 µM (inactive)
GI50 (OVCAR-5): 33.7 µM (inactive)
GI50 (OVCAR-8): 5.64 µM (inactive)
GI50 (PC-3): 1.66 µM (inactive)
GI50 (RPMI-8226): 3.48 µM (inactive)
GI50 (RXF 393): 1.53 µM (inactive)
GI50 (SF-268): 10.3 µM (inactive)
GI50 (SF-295): 1.74 µM (inactive)
GI50 (SF-539): 2.77 µM (inactive)
GI50 (SK-MEL-28): 4.82 µM (inactive)
GI50 (SK-MEL-2): 2.24 µM (inactive)
GI50 (SK-MEL-5): 2.31 µM (inactive)
GI50 (SK-OV-3): 2.4 µM (inactive)
GI50 (SN12C): 6.38 µM (inactive)
GI50 (SNB-19): 5.66 µM (inactive)
GI50 (SNB-75): 2.03 µM (inactive)
GI50 (SNB-78): 5.08 µM (inactive)
GI50 (SR): 2.15 µM (inactive)
GI50 (SW-620): 2.87 µM (inactive)
GI50 (T47D): 4.26 µM (inactive)
GI50 (TK-10): 9.86 µM (inactive)
GI50 (U-251): 3.15 µM (inactive)
GI50 (UACC-257): 4.6 µM (inactive)
GI50 (UACC-62): 1.31 µM (inactive)
GI50 (UO-31): 5.61 µM (inactive)
GI50 (XF498): 4.76 µM (inactive)

CN(C)CC/C(=N\Nc1ccccc1)c1ccccc1
GI50 (786-0): 23 µM (inactive)
GI50 (A549): 45 µM (inactive)
GI50 (CAKI-1): 3.18 µM (inactive)
GI50 (COLO 205): 17.6 µM (inactive)
GI50 (DLD-1): 69.2 µM (inactive)
GI50 (DMS-114): 15.6 µM (inactive)
GI50 (EKVX): 15.7 µM (inactive)
GI50 (HCC 2998): 12.2 µM (inactive)
GI50 (HCT-116): 12.2 µM (inactive)
GI50 (HCT-15): 2.88 µM
GI50 (HOP-18): 31 µM (inactive)
GI50 (HOP-62): 13.4 µM (inactive)
GI50 (HOP-92): 11.1 µM (inactive)
GI50 (HT-29): 2.13 µM (inactive)
GI50 (IGROV-1): 29.4 µM (inactive)
GI50 (K562): 2.48 µM (inactive)
GI50 (KM12): 1.57 µM (inactive)
GI50 (M14): 2 µM (inactive)
GI50 (M19-MEL): 25.2 µM (inactive)
GI50 (MOLT-4): 2.83 µM (inactive)
GI50 (Malme-3M): 4.78 µM (inactive)
GI50 (NCI-H23): 23 µM (inactive)
GI50 (OVCAR-3): 13.9 µM (inactive)
GI50 (OVCAR-4): 3.25 µM (inactive)
GI50 (OVCAR-5): 14.4 µM (inactive)
GI50 (OVCAR-8): 4.35 µM (inactive)
GI50 (RPMI-8226): 43.7 µM (inactive)
GI50 (RXF 393): 31.2 µM (inactive)
GI50 (SF-268): 8.13 µM (inactive)
GI50 (SF-295): 2.56 µM (inactive)
GI50 (SF-539): 15.8 µM (inactive)
GI50 (SK-MEL-28): > 10 µM (inactive)
GI50 (SK-MEL-2): 9.16 µM (inactive)
GI50 (SK-MEL-5): 17.7 µM (inactive)
GI50 (SK-OV-3): 15.3 µM (inactive)
GI50 (SNB-19): 40.9 µM (inactive)
GI50 (SNB-78): 11.8 µM (inactive)
GI50 (SR): 47.8 µM (inactive)
GI50 (TK-10): 14.3 µM (inactive)
GI50 (U-251): 27.4 µM (inactive)
GI50 (UACC-62): > 100 µM (inactive)
GI50 (UO-31): 6.85 µM (inactive)
GI50 (XF498): 3.89 µM (inactive)

O=[N+]([O-])c1ccc(C[P+]2(c3ccccc3)CCCCC2)cc1.[O-][Cl+3]([O-])([O-])[O-]
GI50 (786-0): > 100 µM (inactive)
GI50 (A498): > 100 µM (inactive)
GI50 (A549): > 100 µM (inactive)
GI50 (ACHN): > 100 µM (inactive)
GI50 (CCRF-CEM): > 100 µM (inactive)
GI50 (COLO 205): > 100 µM (inactive)
GI50 (DLD-1): > 100 µM (inactive)
GI50 (DMS-114): > 100 µM (inactive)
GI50 (DMS-273): > 100 µM (inactive)
GI50 (EKVX): > 100 µM (inactive)
GI50 (HCC 2998): > 100 µM (inactive)
GI50 (HCT-116): > 100 µM (inactive)
GI50 (HCT-15): 72.1 µM
GI50 (HL-60): > 100 µM (inactive)
GI50 (HOP-18): > 100 µM (inactive)
GI50 (HOP-62): > 100 µM (inactive)
GI50 (HT-29): > 100 µM (inactive)
GI50 (IGROV-1): > 100 µM (inactive)
GI50 (K562): > 100 µM (inactive)
GI50 (KM-20L2): > 100 µM (inactive)
GI50 (KM12): > 100 µM (inactive)
GI50 (LOX IMVI): > 100 µM (inactive)
GI50 (LXFL 529): 97.7 µM (inactive)
GI50 (M14): > 100 µM (inactive)
GI50 (MOLT-4): > 100 µM (inactive)
GI50 (Malme-3M): > 100 µM (inactive)
GI50 (NCI-H226): > 100 µM (inactive)
GI50 (NCI-H23): > 100 µM (inactive)
GI50 (NCI-H460): > 100 µM (inactive)
GI50 (NCI-H522): > 100 µM (inactive)
GI50 (OVCAR-3): > 100 µM (inactive)
GI50 (OVCAR-5): > 100 µM (inactive)
GI50 (OVCAR-8): > 100 µM (inactive)
GI50 (RPMI-8226): > 100 µM (inactive)
GI50 (RXF 393): > 100 µM (inactive)
GI50 (SF-295): > 100 µM (inactive)
GI50 (SF-539): > 100 µM (inactive)
GI50 (SK-MEL-28): > 100 µM (inactive)
GI50 (SK-MEL-2): > 100 µM (inactive)
GI50 (SK-MEL-5): > 100 µM (inactive)
GI50 (SK-OV-3): > 100 µM (inactive)
GI50 (SN12C): > 100 µM (inactive)
GI50 (SNB-19): > 100 µM (inactive)
GI50 (SNB-75): > 100 µM (inactive)
GI50 (SR): > 100 µM (inactive)
GI50 (SW-620): > 100 µM (inactive)
GI50 (TK-10): > 100 µM (inactive)
GI50 (U-251): > 100 µM (inactive)
GI50 (UACC-257): > 100 µM (inactive)
GI50 (UACC-62): > 100 µM (inactive)
GI50 (UO-31): > 100 µM (inactive)
GI50 (XF498): < 0.01 µM (active)

Source: ChEMBL document CHEMBL1201862, “PubChem BioAssay data set” (2004)
